The nature of data set [1]: Intrinsic clearance in rat liver microsomes. Type of data set: in vitro ADME. The method, then: Intrinsic Clearance in Rat and Human Liver Microsomes
The in vitro intrinsic clearance (CL int) was investigated in commercially obtained hepatic microsomes from rat and human donors using the substrate depletion (i.e., loss-of-parent vs. time, or t 1/2 method) approach with analyte detection via liquid chromatography-tandem mass spectrometry (LC-MS/MS). For each species, mean %parent remaining values at each time point were calculated from replicates raw data (analyte:IS peak area ratios) and used to determine in vitro t 1/2 and CLint.
Experiments were carried out using a robot-assisted (TECAN model Evo 200). Compound was incubated (1 µM final concentration) in buffer (100 mM potassium phosphate pH 7.4 with 3 mM MgCl2) containing hepatic microsomes (0.5 mg/mL final concentration) from multiple species, discretely, at 37 °C under constant orbital shaking. After 5 minutes (pre-incubation), reactions were initiated by addition of nicotinamide adenine dinucleotide phosphate (NADPH, 1 mM final concentration). At selected time intervals (0, 3, 7, 15, 25, and 45 minutes) post-addition of NADPH, aliquots (50 µL) were taken and placed into a 96-shallow-well plate containing ice cold acetonitrile (150 µL) with carbamazepine (IS, 50 nM). The plates were then centrifuged (3000 rcf at 4 °C) for 10 minutes. The supernatants were transferred to a new 96-shallow-well daughter plate and diluted (1:1 v/v) with water (Milli-Q filtered). The plates were then sealed in preparation for LC-MS/MS analysis (see below).
Raw LC-MS/MS peak area data generated from the assay samples were used to construct natural log-transformed %parent remaining vs. time plots (using t = 0 minute post-NADPH addition sample data as starting point set to 100%). In vitro compound half-life (t 1/2) values were obtained using the following […]
k is the slope from linear regression analysis of the natural log-transformed data (using means from Where all replicates at each time point). Resulting t 1/2 values were then used to calculate hepatic CLint values according to the following equation and with the use of species-specific scale-up factors for liver weight (grams) per total body weight (kg): […]
CLint = in vitro t1/2 x 0.5 mg microsomes x 1 gram liver x kg body wt aScale-up factors used are 45 (rat) and 20 (human).2
Predicted hepatic clearance (CLhep) was calculated using the following equation: […]
Qh represents hepatic blood flow (mL/min/kg): 21 for human, 70 for rat, and 90 for mouse.
Prepared samples were injected (10 µL each) onto an AB Sciex Triple Quad 4500 mass spectrometer system with an Agilent 1260 Infinity II pump and autosampler. Mass spectrometer conditions are described in Table S1. Quantitation of compounds was performed via AB Sciex Multiquant software using the raw analyte:IS peak area ratios. The typical detection range was 0.5 ng/mL to ≥ 5,000 ng/mL utilizing a quadratic equation regression with 1/x2 weighting. […]
Table S1. LC-MS/MS Conditions*
Mobile phase A 0.5% Formic Acid in Water
Mobile phase B 0.5% Formic Acid in Acetonitrile
Gradient Time % Mobile Phase B
In general terms: Liver microsomes are vesicles of endoplasmic reticulum, rich in cytochrome P450 enzymes.

In data set [2] the target is T1, GABAB1A (Homo sapiens, UniProt Q9UBS5).
T1 construct: Eurofins Panlabs (contract screen)
Briefly: Lead Profiling Screen – Eurofins Panlabs. Type of data set: binding. As to conditions: read-out: % inh at 10 μM.

Data set [3] concerns the target T2, Adrenergic α1B (Rattus norvegicus, UniProt P15823).
T2 construct: Eurofins Panlabs (contract screen)
Description: Lead Profiling Screen – Eurofins Panlabs. The data set is classed as binding. As to conditions: read-out: % inh at 10 μM.

The target of data set [4] is hERG potassium channel (Homo sapiens, UniProt Q12809). Description: Lead Profiling Screen – Eurofins Panlabs. Type of data set: binding. As to conditions: read-out: % inh at 10 μM.
Data set [5] concerns 4 strains ± S9. Briefly: Mini Ames test. Type of data set: cell-based. (In general: The Ames test uses bacterial strains that need an amino acid and regain growth without it when mutated back.)
The subject of data set [6] is Purinergic P2X. Description: Lead Profiling Screen – Eurofins Panlabs. The data set is classed as binding, rabbit.
In data set [7] the target is Potassium Channel [KATP] (Cricetus cricetus, UniProt Q09427). Description: Lead Profiling Screen – Eurofins Panlabs. As to conditions: read-out: % inh at 10 μM. Type of data set: binding, hamster.
The target in data set [8] is T3, Cannabinoid CB1 (Homo sapiens, UniProt P21554).
T3 construct: Eurofins Panlabs (contract screen)
Description: Lead Profiling Screen – Eurofins Panlabs. The data set is classed as binding. The settings on record: read-out: % inh at 10 μM.

The test system of data set [9] is Purinergic P2Y. Description: Lead Profiling Screen – Eurofins Panlabs. Type of data set: binding, rat.
In data set [10] the target is Serotonin (5-Hydroxytryptamine) 5-HT1A (Homo sapiens, UniProt P08908). Description: Lead Profiling Screen – Eurofins Panlabs. As to conditions: read-out: % inh at 10 μM. Type of data set: binding.
Data set [11] addresses Transporter, Serotonin (5-Hydroxytryptamine) (SERT) (Homo sapiens, UniProt P31645). Briefly: Lead Profiling Screen – Eurofins Panlabs. As to conditions: read-out: % inh at 10 μM. The data set is classed as binding.
The target in data set [12] is Opiate κ (OP2, KOP) (Homo sapiens, UniProt P41145). Description: Lead Profiling Screen – Eurofins Panlabs. The data set is classed as binding. As to conditions: read-out: % inh at 10 μM.
For data set [13], the system named is cardiac ion channels. Description: Charles River ChanTest Cardiac Channel Panel (patch clamp), whole panel. The data set is classed as cell-based, human. The settings on record: 10 μM. The method, then: page 17: Table S3. Cardiac Ion Channel Panel - Charles River Laboratories for VU6016235 Ion Channel Concentration Mean % Standard Standard n (μM) Inhibition Deviation Error hCav1.2 10 13.9 8.9 5.1 3 hCav3.2 10 6.7 2.7 1.4 4 hHCN2 10 2.6 1.9 1.1 3 hERG 10 10.9 0.9 0.4 4 hKv1.5 10 1.3 1.8 0.9 4 […] 10 4.1 5.6 2.8 4 hKv1.3 10 9 2.9 1.7 3 hNav1.5 (Tonic) 10 5.8 0.6 0.4 3 […] (Phasic) The in vitro effects of VU6016235 were evaluated at room temperature using the QPatch HT® (Sophion Bioscience A/S, Denmark), an automatic parallel patch clamp system. VU6016235 was evaluated at a concentration of 10 μM and tested in at least 3 cells (n ≥ 3). […] Next, rats were injected subcutaneously with vehicle or a dose of 0.75 mg/kg amphetamine and then monitored for an additional 60 min. Changes in locomotor activity were recorded for a total of 120 min. Locomotor data were expressed as the number of photobeam breaks/5 min intervals across the 120-min test session or as the total ambulation, calculated as sum of photobeam beam breaks from the time of amphetamine administration (60 min) until the end of the study (120 min). Time course data were analyzed by two-way ANOVA with main effects of treatment and time; changes in total ambulation were analyzed by one-way ANOVA followed by Dunnett's post hoc test (GraphPad Prism 7 [GraphPad Software, San Diego, CA]). […]
Background: In patch-clamp work, channel activity is measured electrically.

Broadly, the CLint scaled is the rate of metabolic loss divided by the concentration. Low values mean slow turnover, high ones rapid turnover.

Sequence of Potassium Channel [KATP] (Q09427 whole entry): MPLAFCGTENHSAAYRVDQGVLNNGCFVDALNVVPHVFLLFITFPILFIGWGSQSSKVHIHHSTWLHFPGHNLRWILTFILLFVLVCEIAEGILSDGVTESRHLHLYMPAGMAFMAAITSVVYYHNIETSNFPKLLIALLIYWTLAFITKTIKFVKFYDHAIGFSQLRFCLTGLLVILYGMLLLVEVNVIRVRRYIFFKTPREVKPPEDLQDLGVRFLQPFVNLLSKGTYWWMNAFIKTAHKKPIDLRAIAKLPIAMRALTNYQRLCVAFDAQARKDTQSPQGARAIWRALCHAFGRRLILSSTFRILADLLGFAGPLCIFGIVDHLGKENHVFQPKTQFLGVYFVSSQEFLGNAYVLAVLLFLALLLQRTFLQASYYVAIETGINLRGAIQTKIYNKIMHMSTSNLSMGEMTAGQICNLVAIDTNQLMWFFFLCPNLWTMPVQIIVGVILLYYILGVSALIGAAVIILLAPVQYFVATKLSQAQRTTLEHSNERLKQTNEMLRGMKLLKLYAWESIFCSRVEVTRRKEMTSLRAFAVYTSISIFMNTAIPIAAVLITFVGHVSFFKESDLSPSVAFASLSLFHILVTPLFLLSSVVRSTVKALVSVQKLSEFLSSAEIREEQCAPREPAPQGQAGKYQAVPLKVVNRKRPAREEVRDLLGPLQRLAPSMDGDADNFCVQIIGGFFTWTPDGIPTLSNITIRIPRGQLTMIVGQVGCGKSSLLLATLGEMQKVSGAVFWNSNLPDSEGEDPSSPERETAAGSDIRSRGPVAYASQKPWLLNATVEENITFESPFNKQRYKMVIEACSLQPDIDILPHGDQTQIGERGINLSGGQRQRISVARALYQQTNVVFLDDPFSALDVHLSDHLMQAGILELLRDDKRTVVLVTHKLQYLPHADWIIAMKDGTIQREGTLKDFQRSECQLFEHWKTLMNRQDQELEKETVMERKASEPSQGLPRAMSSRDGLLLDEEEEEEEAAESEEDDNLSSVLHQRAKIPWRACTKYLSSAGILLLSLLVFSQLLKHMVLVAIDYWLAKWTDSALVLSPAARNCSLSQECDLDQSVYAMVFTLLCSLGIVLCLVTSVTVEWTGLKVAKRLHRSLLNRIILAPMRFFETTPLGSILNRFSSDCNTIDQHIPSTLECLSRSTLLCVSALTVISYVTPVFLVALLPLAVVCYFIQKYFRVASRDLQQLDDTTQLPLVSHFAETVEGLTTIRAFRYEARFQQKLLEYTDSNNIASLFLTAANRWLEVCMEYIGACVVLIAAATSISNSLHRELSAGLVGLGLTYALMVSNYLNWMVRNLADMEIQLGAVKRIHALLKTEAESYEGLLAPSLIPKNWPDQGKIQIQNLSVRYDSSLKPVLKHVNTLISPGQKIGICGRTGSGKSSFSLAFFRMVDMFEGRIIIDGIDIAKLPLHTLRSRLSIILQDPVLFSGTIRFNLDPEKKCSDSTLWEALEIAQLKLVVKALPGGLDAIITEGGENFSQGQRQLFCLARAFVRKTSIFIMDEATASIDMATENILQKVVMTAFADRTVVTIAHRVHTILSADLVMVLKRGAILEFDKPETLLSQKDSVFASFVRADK
T3 sequence (P21554 whole entry): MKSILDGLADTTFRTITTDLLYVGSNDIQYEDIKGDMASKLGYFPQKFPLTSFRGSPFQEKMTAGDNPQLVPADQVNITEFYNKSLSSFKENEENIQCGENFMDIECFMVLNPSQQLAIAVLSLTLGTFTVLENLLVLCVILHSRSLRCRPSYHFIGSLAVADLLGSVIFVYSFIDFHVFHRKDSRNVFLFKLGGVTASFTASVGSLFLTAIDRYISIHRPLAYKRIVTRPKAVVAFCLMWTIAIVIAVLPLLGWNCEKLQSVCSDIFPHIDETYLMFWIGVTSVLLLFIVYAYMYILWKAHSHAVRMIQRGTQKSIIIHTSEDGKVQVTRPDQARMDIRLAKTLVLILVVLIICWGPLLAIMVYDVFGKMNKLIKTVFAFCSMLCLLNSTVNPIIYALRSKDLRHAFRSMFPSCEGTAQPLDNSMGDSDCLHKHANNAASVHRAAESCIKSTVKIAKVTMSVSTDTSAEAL
Sequence of hERG potassium channel (Q12809 whole entry): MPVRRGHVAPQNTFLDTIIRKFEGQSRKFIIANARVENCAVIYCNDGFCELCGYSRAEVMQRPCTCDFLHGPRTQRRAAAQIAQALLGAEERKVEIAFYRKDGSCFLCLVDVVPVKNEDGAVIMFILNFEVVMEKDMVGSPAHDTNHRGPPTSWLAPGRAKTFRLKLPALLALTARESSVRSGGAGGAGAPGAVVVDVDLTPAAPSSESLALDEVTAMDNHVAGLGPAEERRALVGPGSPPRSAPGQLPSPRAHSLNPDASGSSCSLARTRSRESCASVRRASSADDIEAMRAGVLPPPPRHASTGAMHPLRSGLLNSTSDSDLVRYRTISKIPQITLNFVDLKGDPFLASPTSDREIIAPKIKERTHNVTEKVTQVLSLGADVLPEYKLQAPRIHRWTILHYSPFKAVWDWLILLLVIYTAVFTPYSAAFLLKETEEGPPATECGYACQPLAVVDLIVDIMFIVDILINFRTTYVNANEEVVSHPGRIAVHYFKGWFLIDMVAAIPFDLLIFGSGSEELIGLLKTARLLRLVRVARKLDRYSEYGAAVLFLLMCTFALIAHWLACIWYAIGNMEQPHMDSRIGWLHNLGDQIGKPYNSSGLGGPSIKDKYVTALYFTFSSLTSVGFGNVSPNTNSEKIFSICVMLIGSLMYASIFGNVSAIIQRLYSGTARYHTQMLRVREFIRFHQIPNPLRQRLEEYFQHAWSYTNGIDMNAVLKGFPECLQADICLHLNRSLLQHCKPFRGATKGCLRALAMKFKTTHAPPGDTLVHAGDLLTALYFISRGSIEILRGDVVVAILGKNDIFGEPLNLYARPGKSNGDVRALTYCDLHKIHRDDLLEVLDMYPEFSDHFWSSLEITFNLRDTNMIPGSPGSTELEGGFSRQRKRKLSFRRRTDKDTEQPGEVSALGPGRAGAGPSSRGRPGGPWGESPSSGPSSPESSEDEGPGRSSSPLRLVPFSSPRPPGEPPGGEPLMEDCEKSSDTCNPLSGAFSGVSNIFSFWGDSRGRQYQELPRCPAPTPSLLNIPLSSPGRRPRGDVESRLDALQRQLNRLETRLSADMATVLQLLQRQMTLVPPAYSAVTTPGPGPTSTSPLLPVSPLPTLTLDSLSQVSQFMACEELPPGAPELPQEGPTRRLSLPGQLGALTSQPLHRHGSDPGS
Sequence of Serotonin (5-Hydroxytryptamine) 5-HT1A (P08908 whole entry): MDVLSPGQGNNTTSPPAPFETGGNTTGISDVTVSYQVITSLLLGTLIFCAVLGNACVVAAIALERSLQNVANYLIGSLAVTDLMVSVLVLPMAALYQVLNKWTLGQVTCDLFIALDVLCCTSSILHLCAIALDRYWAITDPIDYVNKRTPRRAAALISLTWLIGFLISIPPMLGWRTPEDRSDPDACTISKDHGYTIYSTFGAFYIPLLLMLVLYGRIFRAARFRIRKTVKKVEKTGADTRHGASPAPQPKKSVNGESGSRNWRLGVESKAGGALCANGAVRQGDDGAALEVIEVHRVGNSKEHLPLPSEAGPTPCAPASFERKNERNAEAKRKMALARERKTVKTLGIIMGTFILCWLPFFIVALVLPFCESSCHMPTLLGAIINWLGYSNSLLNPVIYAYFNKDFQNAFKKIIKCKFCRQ
Sequence of Opiate κ (OP2, KOP) (P41145 whole entry): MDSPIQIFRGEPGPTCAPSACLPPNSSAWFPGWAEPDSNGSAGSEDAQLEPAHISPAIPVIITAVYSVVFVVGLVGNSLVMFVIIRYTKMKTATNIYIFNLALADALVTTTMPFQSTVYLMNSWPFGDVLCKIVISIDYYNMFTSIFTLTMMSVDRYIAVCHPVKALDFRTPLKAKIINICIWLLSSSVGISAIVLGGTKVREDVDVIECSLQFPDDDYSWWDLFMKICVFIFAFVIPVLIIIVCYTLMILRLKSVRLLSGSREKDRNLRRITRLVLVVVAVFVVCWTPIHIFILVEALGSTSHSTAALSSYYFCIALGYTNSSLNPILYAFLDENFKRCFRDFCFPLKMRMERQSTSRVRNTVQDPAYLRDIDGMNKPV
T2 sequence (P15823 whole entry): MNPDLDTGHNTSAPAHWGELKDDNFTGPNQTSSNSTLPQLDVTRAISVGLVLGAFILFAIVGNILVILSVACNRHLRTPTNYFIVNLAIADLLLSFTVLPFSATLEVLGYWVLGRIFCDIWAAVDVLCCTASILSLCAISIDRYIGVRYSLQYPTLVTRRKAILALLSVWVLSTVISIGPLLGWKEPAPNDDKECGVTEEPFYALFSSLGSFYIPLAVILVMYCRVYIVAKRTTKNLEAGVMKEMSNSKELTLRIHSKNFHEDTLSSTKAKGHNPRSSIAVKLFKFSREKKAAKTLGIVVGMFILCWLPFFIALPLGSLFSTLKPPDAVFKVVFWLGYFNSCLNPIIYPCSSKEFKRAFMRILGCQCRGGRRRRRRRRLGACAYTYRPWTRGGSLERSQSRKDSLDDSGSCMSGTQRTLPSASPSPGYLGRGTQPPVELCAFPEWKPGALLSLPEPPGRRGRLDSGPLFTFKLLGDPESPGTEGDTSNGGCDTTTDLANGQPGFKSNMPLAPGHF

`Cc1nc(C)c2c(n1)sc1c(NCc3ccc(C(C)(C)O)cc3)nccc12` [22g] came in with an intrinsic clearance (CLint scaled) at 1 µM in data set [1] (pH 7.4, rat liver microsomes) of 78 mL/min/kg. The “CLhep, rat” value in data set [1] (predicted hepatic clearance from microsomal CLint) is 37 mL/min/kg. For the same compound, the inhibition at 10 µM in [2] is 6%; in [3], 7%; in data set [4] it was 16%; in data set [7] it was 4%; in data set [8], -4%; in data set [10] it was 7%. Besides, the inhibition at 10 µM is 1% in data set [11] and 4% in data set [12]. In addition, the “Mini Ames test result” value in data set [5] is on record as “negative”. For the same compound, the results for the “% inh at 10 μM” value in data set [6] and in [9] were 0% and 9%, respectively. Also, the “inhibition, all ion channels” value in data set [13] is reported as not above 14%.

The record behind these values is paper PMC11487561 (ACS Chemical Neuroscience, 2024).
